Drawing on patent US9440941B2, “Substituted chroman-6-yloxy-cycloalkanes and their use as pharmaceuticals” (SANOFI, priority 2013, dated 2016), this text covers IC50 for seven compounds.

This assay concerns the target T1, human NCX1 (Homo sapiens, UniProt P32418).
T1 construct: expressed in transfected cells
Briefly: Inhibition of Ca2+ influx into cells (NCX1 reverse mode), FLIPR Fluo-4 assay. The settings on record: inhibition of NCX1 in reverse mode (Ca2+ influx into cells); read-out: NCX1rv IC50. Format: cell-based. The method, boiled down:
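Ca2+ influx via reverse-mode exchange was evoked with gramicidin (20 µM final) after 45 min compound exposure at 16 °C in stably transfected CHO cells. Fluo-4 signal (520 nm) was followed on FLIPR at 2 s intervals. Max–min fluorescence gave percentage inhibition, from which IC50 was calculated.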
Broadly, the IC50 is the concentration that gives 50% inhibition. Consider `Cc1ccccc1[C@@H]1CCc2cc(O[C@H]3CC[C@H](C(=O)NCCOP(=O)([O-])[O-])CC3)ccc2O1.[Na+].[Na+]` [Example 303, Phosphoric acid mono-(2-{[trans-4-((S)-2-o-tolyl-chroman-6-yloxy)-cyclohexanecarbonyl]-amino}-ethyl) ester disodium salt], for which the IC50 was 100 nM.

As for `Cc1ccccc1C1CCc2cc(OC3CCC(C(=O)NCc4ccno4)CC3)ccc2O1` (stereo not shown) [Example 158, N-(Isoxazol-5-ylmethyl)-4-(2-o-tolyl-chroman-6-yloxy)-cyclohexanecarboxamide], the IC50 stood at 400 nM.

`O=C(N[C@H]1CC[C@H](Oc2ccc3c(c2)CCC(c2ccccc2)O3)CC1)[C@@H]1CCCN1` (stereo partly drawn) [Example 180, (S)—N-[trans-4-(2-Phenyl-chroman-6-yloxy)-cyclohexyl]-pyrrolidine-2-carboxamide]: the IC50 stood at 800 nM.

Take `Cc1ccccc1[C@@H]1CCc2cc(O[C@H]3CC[C@H](C(=O)NCCO)CC3)ccc2O1` [Example 268, trans-4-((S)-2-o-tolyl-chroman-6-yloxy)-cyclohexanecarboxylic acid (2-hydroxy-ethyl)-amide]: the IC50 was determined as 150 nM.

For the compound `Cc1ccccc1C1CCc2cc(OC3CCC(NCc4c(C)nn(C)c4C)CC3)ccc2O1` (stereo not shown) [Example 177, 4-(2-o-Tolyl-chroman-6-yloxy)-N-(1,3,5-trimethylpyrazol-4-ylmethyl)-cyclohexylamine], the half-maximal inhibitory concentration (IC50) was determined as 3200 nM.

As to `NCC(=O)N[C@H]1CC[C@H](Oc2ccc3c(c2)CC[C@@H](c2ccccc2)O3)CC1` [Example 159, 2-Amino-N-[trans-4-((S)-2-phenyl-chroman-6-yloxy)-cyclohexyl]-acetamide], the IC50 was determined as 200 nM.

Turning to `Cc1ccccc1C1CCc2cc(O[C@H]3CC[C@H](N)CC3)ccc2O1.Cl` (stereo partly drawn) [Example 156, trans-4-(2-o-Tolyl-chroman-6-yloxy)-cyclohexylamine], the IC50 was 600 nM.
